# “And” between values parts separate entries of the source, which are not always exact repeats. Equal entries are not always repeated. The source made the active and inactive calls.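 How the source made its calls: active means compounds giving half or more protection of infected cells from virus-caused growth loss, again on retest; inactive means the rest.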
# Tested on: CEM cells HIV-1 protection, formazan growth assay
# Assay: NCI AIDS Antiviral Assay
# Conditions: for IC50: measured here: growth of uninfected CEM cells
# Summary of the method: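 Protection of CEM cells against HIV-1 measured as cell growth via soluble formazan read-out, with five concentrations tested on both infected and uninfected cells; failure to protect may reflect toxicity.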
Structure (SMILES),outcome,EC50 [µM],IC50
O=C(NC(=O)c1cn(CCN(CCO)C(=O)NCCCCCCNC(=O)N(CCO)CCn2cc(C(=O)NC(=O)OCc3ccccc3)c(=O)[nH]c2=O)c(=O)[nH]c1=O)OCc1ccccc1,inactive,–,–
CCOC1OC(COC(=O)C(C)(C)C)C(O)CC1n1cc(C)c(=O)[nH]c1=O (stereo not given),–,> 200,> 200 µM
O=C1C(=Cc2ccc(Cl)c(Cl)c2)C([O-])=C([P+](c2ccccc2)(c2ccccc2)c2ccccc2)C([O-])=C1[P+](c1ccccc1)(c1ccccc1)c1ccccc1,–,> 100,1.23 µM
Cc1ccccc1-c1nc2c(N)nc(N)nc2nc1N,inactive,–,–
C=CC1(CC[C@]2(c3ccc(OC)c(OC)c3)C=[N+]([O-])O[C@H](O[C@@H]3CCCC[C@H]3C(C)(C)c3ccccc3)C2)OCC(C)(C)CO1,–,> 200,11.2 µM
NC(=O)C(F)C(N)=O,–,> 200,> 200 µM
CC12CCC[C@@](C)(C(=O)O)[C@H]1CCC1=CC3(CCC12)SCCS3 (stereo not given in full),–,> 355,57.5 µM
CC1=Nc2ccccc2N=C(c2c(O)c3ccc4ccccc4c3oc2=O)C1,–,> 200,49 µM
CC(C)(C)OC(=O)CCCCCNC(=O)CCCCCNC(=O)CCC(CN(CC(=O)OCc1ccccc1)CC(=O)OCc1ccccc1)N(CC(=O)OCc1ccccc1)CC(=O)OCc1ccccc1 (stereo not given),inactive,–,–
CC(=O)NC(CCCNC(=O)N(C)N=O)C(=O)NCc1ccccc1 (stereo not given),–,> 708,> 708 µM
CO[C@H]1CC[C@@]2(C)C(CC[C@@]3(C)CC4=C[C@H]5C(C)(CO)C(=O)CCC5(C)[C@H]4CCC32)C1(C)C (stereo not given in full),–,> 100,> 100 µM
CC(=O)N1C(Nc2ccccn2)CCN1c1ccccc1 (stereo not given),–,> 200,38 µM
O=C1CC(CC(O)C2CCCCC2O)CC(=O)N1 (stereo not given),–,> 200,> 200 µM
CC1=NNC(=O)C1C1C=C(c2c[nH]c3ccccc23)OC1=O (stereo not given),–,> 200,102 µM
COCOC1/C=C/CCCCC2=C(C)C=C(C1)O2 (stereo not given),–,> 141,132 µM
O=C(Nc1nc(C23CC4CC(CC(C4)C2)C3)cs1)c1cc2ccccc2oc1=O,–,> 200,> 200 µM
Nc1nc(N)c(-c2ccccc2)c(C(=O)Nc2ccc(Cl)c(Cl)c2)n1,–,> 479,–
O=S(=O)(N/N=C1\CC2CCC1C2)c1ccccc1 (stereo not given),–,> 200,> 200 µM
CCOC(=O)C1N=[N+](c2ccccc2)C(=O)/C1=C\n1c(=S)[nH]c2ccc([N+](=O)[O-])cc21 (stereo not given),–,> 200,107 µM
C=C1C(O)O[C@@H]2O[C@@]3(C)CC[C@H]4[C@H](C)CCC1[C@@]24O3 (stereo not given in full),–,> 200,95.5 µM
COc1cc(OC)c(NC2=NCCO2)cc1Cl,–,> 200,13.5 µM

Structure (SMILES),outcome,EC50 [µM],IC50
COC(=O)c1c(C#N)[nH]c(-c2ccsc2)c1C(=O)OC,–,> 200,52.5 µM
COC(=O)C(=O)C(C(=O)OC)C(=O)C(=O)Nc1cc(Cl)c(Cl)cc1Cl (stereo not given),–,> 17.4,> 17.4 µM
NC(=O)C(=CN1C(=O)/C(=C\c2cccc(O)c2)SC1=S)C(N)=O,–,> 200,107 µM
Cc1ccc(S(=O)(=O)[N-]C2C(=O)c3ccccc3C(=O)C2[n+]2cccc(C(N)=O)c2)cc1 (stereo not given),–,> 200,> 200 µM
CCOC(=O)c1c(SCc2ccccc2)nc2c3ccccc3ccn12,–,> 151,> 151 µM
O=C1C(=O)c2c(nc3ccccn23)-c2ccccc21,–,> 2,0.427 µM
O=C(CC1=NC2NN(c3ccccc3)C(=O)C2=C1CC(=O)c1ccccc1)c1ccccc1 (stereo not given),–,> 575,174 µM
CCC1C(C)c2c([nH]c3ccccc23)C2C(=O)N(c3ccccc3)C(=O)C21 (stereo not given),inactive,–,–
CC1=C(C(=O)OC23CC4CC(CC(C4)C2)C3)C(c2ccccc2OC(F)F)C(C(=O)OC23CC4CC(CC(C4)C2)C3)=C(C)N1 (stereo not given),–,> 100,> 100 µM
NC(Cc1ccc(OCc2ccccc2)cc1)C(=O)NC(Cc1ccccc1)C(=O)Oc1c(Cl)c(Cl)c(Cl)c(Cl)c1Cl (stereo not given),–,> 200,28.8 µM
C/C(=N\N)C(CN(C)C)C(c1ccccc1)c1c(O)c2ccccc2oc1=O (stereo not given),–,> 87.1,> 87.1 µM
C1CSCCSCCCSCCSCCCSCCSCCCSCCSC1,–,> 7.08,> 7.08 µM
CCOC(=O)C1(c2ccccc2)CCNC(=O)CC1 (stereo not given),–,> 955,> 955 µM
O=C1c2cc(Cl)ccc2NC(=NCCCl)C2CSCN12 (stereo not given),–,> 200,> 200 µM
CC(=O)O[C@H]1CC[C@H]2[C@@H]3CCC4=C/C(=N/OCCN(C)C)CC[C@]4(C)[C@H]3CC[C@]12C,–,> 200,0.955 µM
Cc1n[nH]c(=O)n1C1CC1,–,> 200,> 200 µM
O=S1(=O)CC2C3C=CC(O3)C21 (stereo not given),–,> 1450,> 1450 µM
CCc1ccc(Cc2ccc(CC)c(NC(=O)C(=O)Cc3nc4ccccc4nc3C)c2CC)c(CC)c1NC(=O)C(=O)Cc1nc2ccccc2nc1C,–,> 13.5,> 13.5 µM
CC(C)N1CCOC12CCCC2,–,> 200,29.5 µM
CC(=O)OCC(OC(C)=O)C(OC(C)=O)C(/C=N/N(C(C)=O)S(=O)(=O)c1ccc(/C=C2\NC(=O)NC2=O)cc1)OC(C)=O (stereo not given),–,> 200,105 µM
Cc1ccc(S(=O)(=O)Nc2ccccc2NS(=O)(=O)c2ccc(C)cc2)cc1,–,> 200,30.2 µM

Structure (SMILES),outcome,EC50 [µM],IC50
COc1ccccc1NC(=S)Nc1ccccn1,–,> 200,> 200 µM
COC(=O)c1cc(O)ccc1NC(=O)c1ccc(O)cc1,–,> 912,363 µM
O=C1O[C@H]2CCC3=CC[C@@H](c4ccccc4)C=C1[C@H]32,inactive,–,–
CCO[C@@H]1N(C2CC(N=[N+]=[N-])C(CO)O2)C(=O)NC(=O)[C@]1(C)Cl (stereo not given in full),–,> 200,> 200 µM
CC(C)(C)OC(=O)/N=C/c1c(O)c2ccccc2oc1=O,–,> 200,30.2 µM
O=C1C(Cl)C(c2ccc([N+](=O)[O-])cc2)N1n1cnc2ccccc2c1=O (stereo not given),–,> 7.41,> 7.41 µM
O=[N+]([O-])c1cccc2nc3ccccc3c(NCCCCNc3c4ccccc4nc4cccc([N+](=O)[O-])c34)c12,–,> 0.1,0.0162 µM
CC1CCCC2(C1)OCC(O)CO2 (stereo not given),inactive,–,–
N#CCc1nc2ccccc2c(=O)[nH]1,–,17.8,69.2 µM
CC1(Cl)CCC2(CC1Br)C(C)(C)C(Br)=CC1OC12C (stereo not given),–,> 200,33.9 µM
Cc1ccc(S(=O)(=O)N/N=C/C2(c3ccccc3)c3ccccc3-c3ccccc32)cc1,–,> 200,11.2 µM
CN=c1ncc2nc(-c3ccccc3)c(-c3ccccc3)n(C)c-2n1,inactive,–,–
CC(C)/C=C/c1cc(/C=C/C(=O)c2cc(/C=C/C(C)C)c(O)cc2O)ccc1O,inactive,–,–
O=[N+]([O-])c1ccc(NC(=S)N/N=C(\c2ccccc2)c2ccccn2)cc1,–,> 2,> 2 µM
O=C(O)c1nc2cc(C(F)(F)F)ccc2[nH]c1=O,–,> 200,> 200 µM
Clc1cccc(Cl)c1C1SCc2nc3ccccc3n21 (stereo not given),–,0.224,21.9 µM
CCOP(=O)(OCC)/C(C#N)=C/c1cc(O)ccc1O,–,> 832,145 µM
COc1ccc(/C=C\c2cc(OC)c(OC)c(OC)c2)cc1OCC(=O)O,inactive,–,–
Nc1ccc(C(=O)N/C(=C\C=C\c2ccco2)c2nc3[nH]c(=S)[nH]c(=O)c3[nH]2)cc1,inactive,–,–
COC(=O)C1=C(C(=O)OC)C2=S(SC3=C2CCCC3)S1 (stereo not given),inactive,–,–
O=C(O)Cn1c(=O)[nH]c(=O)c2[nH]cnc21,–,> 1200,> 1200 µM

Structure (SMILES),outcome,EC50 [µM],IC50
CC(C(N)=O)N(C)C(=O)c1cc2ccccc2[n+](Cc2ccccc2)c1 (stereo not given),inactive,–,–
N#CC(C#N)=Cc1c(O)ccc2ccccc12,–,> 200,9.77 µM
Cc1ccc([P+](CCN2C(=O)c3ccccc3C2=O)(c2ccc(C)cc2)c2ccc(C)cc2)cc1,–,> 200,10 µM
O=C1CCC(=O)N2CCCCN12,–,> 407,> 407 µM
O=c1oc2ccccc2c(O)c1/C=N/C(=S)Nc1ccccc1,–,> 200,51.3 µM
N#C/C(=C\NC(=S)Nc1cc(Cl)ccc1Cl)C(=O)c1ccc2ccccc2c1,–,> 100,> 100 µM
CO/C1=C\C(C)=C\C(C)C(O)C(C)C/C(C)=C/C=C/C(OC)C(C(C)C(O)C(C)C2(O)CC(O)C(C)C(C(C)C)O2)OC1=O (stereo not given),–,> 0.2,0.0129 µM
Cc1n[nH]c(=O)n1N1C(=O)c2ccccc2C1=O,–,> 200,> 200 µM
CC1(C)[C@@H]2C[C@H]1C(Cc1ccccc1C[C@H]1c3cc(-c4ccccn4)ncc3[C@H]3C[C@@H]1C3(C)C)c1cc(-c3ccccn3)ncc12 (stereo not given in full),–,> 200,0.316 µM
Oc1cc2c(cc1O)-c1[nH]ncc1CC2,–,> 67.6,33.1 µM
O=C(NCCCCCCNC(=O)n1cc(F)c(=O)[nH]c1=O)NCCCOCCOCCCNC(=O)C(O)C(O)C(O)C(O)CO (stereo not given),inactive,–,–
COc1cc(C2c3cc4c(cc3OC(Nc3ccccc3)C2C)OCO4)cc(OC)c1OC (stereo not given),–,> 200,0.275 µM
O=c1[nH]c(N2CCOCC2)nc2cc3ccccc3cc12,–,> 155,> 155 µM
CCN(CC)CCn1c(=O)c2cccnc2n2c3c(=O)n(C)c(=O)n(C)c3nc12,–,> 129,60.3 µM
CC(=O)c1cc2c(cc1C(C)C)CC[C@H]1[C@](C)(C#N)CCC[C@]21C,–,> 200,174 µM and 126 µM
O=C1c2cc(-c3ccccc3)cnc2S(=O)(=O)N1c1ccc(Br)cc1,–,> 200,16.6 µM
COc1ccc(C(=O)c2ccc(OC)c3ccccc23)c2ccccc12,–,> 200,1.51 µM
CCC1(OC(C)=O)C(=O)OCc2c1cc1n(c2=O)Cc2cc3ccccc3nc2-1 (stereo not given),–,> 10,0.129 µM
CC1OC(OC2C(O)COC(OC3C(C)OC(OC4C(OC(=O)[C@]56CCC(C)(C)C[C@@H]5C5=CCC7[C@@]8(C)C[C@H](O)[C@H](OC9OC(CO)C(O)C(OC%10OC(CO)C(O)C(O)C%10O)C9O)[C@@](C)(CO)[C@@H]8CC[C@@]7(C)[C@]5(C)CC6)OCC(O)C4O)C(O)C3OC3OCC(O)C(O)C3O)C2O)C(O)C(O)C1O (stereo not given in full),–,> 17,> 17 µM
